Reference: paper PMC4685510, “A Cell Biologist’s Field Guide to Aurora Kinase Inhibitors” (Frontiers in Oncology, 2015)

Key:
Experiment in all cases: biochemical
Assay type in all cases: biochemical
[1] = biological target: 363 human kinases (including Aurora A/B/C) (Homo sapiens, UniProt P29376); conditions: TYK1/LTK; for remaining activity at 0.1 µM: 100 nM; for remaining activity at 0.1 µM / remaining activity at 0.5 µM: read-out: % Enzyme Activity (relative to DMSO controls)
Excerpt: (§1) However, the Aurora A/B selectivity ratios derived from our in vitro and in vivo data can be compared to prioritize inhibitors.

[2] = biological target: 363 human kinases (including Aurora A/B/C) (Homo sapiens, UniProt P19784); conditions: CK2a2, [ATP] 30 µM; for remaining activity at 0.1 µM: 100 nM; for remaining activity at 0.1 µM / remaining activity at 0.5 µM: read-out: % Enzyme Activity (relative to DMSO controls)
Excerpt: as §1

[3] = biological target: 363 human kinases (including Aurora A/B/C) (Homo sapiens, UniProt Q9H422); conditions: HIPK3; for remaining activity at 0.1 µM: 100 nM; for remaining activity at 0.1 µM / remaining activity at 0.5 µM: read-out: % Enzyme Activity (relative to DMSO controls)
Excerpt: as §1

[4] = biological target: 363 human kinases (including Aurora A/B/C) (Homo sapiens, UniProt P49674); conditions: CK1epsilon, [ATP] 50 µM; for remaining activity at 0.1 µM: 100 nM; for remaining activity at 0.1 µM / remaining activity at 0.5 µM: read-out: % Enzyme Activity (relative to DMSO controls)
Excerpt: as §1

[5] = biological target: T1, 363 human kinases (including Aurora A/B/C) (Homo sapiens, UniProt Q16566); conditions: CAMK4, [ATP] 10 µM; for remaining activity at 0.1 µM: 100 nM; for remaining activity at 0.1 µM / remaining activity at 0.5 µM: read-out: % Enzyme Activity (relative to DMSO controls)
T1 sequence (Q16566 1-473): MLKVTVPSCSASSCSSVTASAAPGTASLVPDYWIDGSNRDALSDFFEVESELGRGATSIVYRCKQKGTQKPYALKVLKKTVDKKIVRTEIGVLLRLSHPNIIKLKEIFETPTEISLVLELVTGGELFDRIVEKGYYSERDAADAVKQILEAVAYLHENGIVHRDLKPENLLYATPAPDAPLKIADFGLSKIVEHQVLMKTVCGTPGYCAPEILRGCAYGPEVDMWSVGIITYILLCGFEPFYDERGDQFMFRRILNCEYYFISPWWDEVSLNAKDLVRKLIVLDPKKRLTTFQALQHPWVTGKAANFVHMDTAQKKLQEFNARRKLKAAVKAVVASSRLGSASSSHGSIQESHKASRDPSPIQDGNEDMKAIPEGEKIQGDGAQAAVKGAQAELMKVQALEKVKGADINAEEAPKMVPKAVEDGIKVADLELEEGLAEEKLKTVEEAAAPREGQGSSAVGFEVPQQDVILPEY
Excerpt: as §1

[6] = biological target: 363 human kinases (including Aurora A/B/C) (Homo sapiens, UniProt Q9Y2H1); conditions: STK38L/NDR2; for remaining activity at 0.1 µM: 100 nM; for remaining activity at 0.1 µM / remaining activity at 0.5 µM: read-out: % Enzyme Activity (relative to DMSO controls)
Excerpt: as §1

[7] = biological target: T2, 363 human kinases (including Aurora A/B/C) (Homo sapiens, UniProt O15111); conditions: IKKa/CHUK; for remaining activity at 0.1 µM: 100 nM; for remaining activity at 0.1 µM / remaining activity at 0.5 µM: read-out: % Enzyme Activity (relative to DMSO controls)
T2 sequence (O15111 1-745): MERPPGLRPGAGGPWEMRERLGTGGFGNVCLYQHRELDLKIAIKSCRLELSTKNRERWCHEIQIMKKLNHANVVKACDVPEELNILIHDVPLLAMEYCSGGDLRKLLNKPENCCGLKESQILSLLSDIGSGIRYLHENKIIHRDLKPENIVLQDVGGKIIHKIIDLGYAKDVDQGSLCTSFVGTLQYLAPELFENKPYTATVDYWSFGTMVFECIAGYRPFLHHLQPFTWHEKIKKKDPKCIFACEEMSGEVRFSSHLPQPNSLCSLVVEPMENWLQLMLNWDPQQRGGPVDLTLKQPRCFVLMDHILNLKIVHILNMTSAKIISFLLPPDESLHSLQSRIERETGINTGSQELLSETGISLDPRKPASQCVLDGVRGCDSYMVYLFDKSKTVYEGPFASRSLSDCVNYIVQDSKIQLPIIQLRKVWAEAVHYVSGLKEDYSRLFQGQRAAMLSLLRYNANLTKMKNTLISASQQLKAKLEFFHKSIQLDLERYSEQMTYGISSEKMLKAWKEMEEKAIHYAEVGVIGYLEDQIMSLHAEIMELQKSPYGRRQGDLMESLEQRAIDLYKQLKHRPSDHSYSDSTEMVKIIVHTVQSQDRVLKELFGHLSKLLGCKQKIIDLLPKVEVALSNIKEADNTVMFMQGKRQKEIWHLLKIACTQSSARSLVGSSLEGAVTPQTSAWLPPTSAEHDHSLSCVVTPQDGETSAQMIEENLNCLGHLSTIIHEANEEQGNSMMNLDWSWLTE
Excerpt: as §1

[8] = biological target: T3, 363 human kinases (including Aurora A/B/C) (Homo sapiens, UniProt Q15835); conditions: GRK1; for remaining activity at 0.1 µM: 100 nM; for remaining activity at 0.1 µM / remaining activity at 0.5 µM: read-out: % Enzyme Activity (relative to DMSO controls)
T3 sequence (Q15835 1-563): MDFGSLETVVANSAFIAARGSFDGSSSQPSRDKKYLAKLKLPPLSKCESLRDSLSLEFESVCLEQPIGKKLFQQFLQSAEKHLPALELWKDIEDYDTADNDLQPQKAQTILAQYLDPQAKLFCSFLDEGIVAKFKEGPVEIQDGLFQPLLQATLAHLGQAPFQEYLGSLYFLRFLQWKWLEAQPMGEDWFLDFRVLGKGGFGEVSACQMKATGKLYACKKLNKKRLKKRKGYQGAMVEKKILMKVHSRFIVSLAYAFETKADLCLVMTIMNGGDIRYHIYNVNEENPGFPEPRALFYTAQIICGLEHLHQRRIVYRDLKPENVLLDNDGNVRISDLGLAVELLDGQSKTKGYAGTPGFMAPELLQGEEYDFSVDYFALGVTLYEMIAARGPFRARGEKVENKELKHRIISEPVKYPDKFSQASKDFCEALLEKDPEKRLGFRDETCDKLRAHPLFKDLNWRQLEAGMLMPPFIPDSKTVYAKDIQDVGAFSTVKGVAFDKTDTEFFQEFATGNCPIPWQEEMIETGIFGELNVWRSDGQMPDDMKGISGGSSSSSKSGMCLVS
Excerpt: as §1

[9] = biological target: 363 human kinases (including Aurora A/B/C) (Homo sapiens, UniProt Q13554); conditions: CAMK2b, [ATP] 100 µM; for remaining activity at 0.1 µM: 100 nM; for remaining activity at 0.1 µM / remaining activity at 0.5 µM: read-out: % Enzyme Activity (relative to DMSO controls)
Excerpt: as §1

[10] = biological target: 363 human kinases (including Aurora A/B/C) (Homo sapiens, UniProt Q96RR4); conditions: CAMKK2, [ATP] 30 µM; for remaining activity at 0.1 µM: 100 nM; for remaining activity at 0.1 µM / remaining activity at 0.5 µM: read-out: % Enzyme Activity (relative to DMSO controls)
Excerpt: as §1

[11] = biological target: 363 human kinases (including Aurora A/B/C) (Homo sapiens, UniProt Q9Y6E0); conditions: MST3/STK24; for remaining activity at 0.1 µM: 100 nM; for remaining activity at 0.1 µM / remaining activity at 0.5 µM: read-out: % Enzyme Activity (relative to DMSO controls)
Sequence of 363 human kinases (including Aurora A/B/C) (Homo sapiens, UniProt Q9Y6E0) (Q9Y6E0 whole entry): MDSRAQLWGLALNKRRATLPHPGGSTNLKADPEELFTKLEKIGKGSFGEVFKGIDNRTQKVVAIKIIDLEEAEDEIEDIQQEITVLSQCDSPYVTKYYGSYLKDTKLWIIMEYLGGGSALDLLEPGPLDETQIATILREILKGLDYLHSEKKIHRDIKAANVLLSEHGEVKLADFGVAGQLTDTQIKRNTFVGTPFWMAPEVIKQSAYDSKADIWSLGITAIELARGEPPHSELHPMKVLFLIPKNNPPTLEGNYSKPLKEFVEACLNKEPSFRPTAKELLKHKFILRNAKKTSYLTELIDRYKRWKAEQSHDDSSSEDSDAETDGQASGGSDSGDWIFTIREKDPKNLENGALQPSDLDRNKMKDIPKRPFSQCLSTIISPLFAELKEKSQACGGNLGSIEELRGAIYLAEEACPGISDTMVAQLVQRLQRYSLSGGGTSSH
Excerpt: as §1

Sequence of 363 human kinases (including Aurora A/B/C) (Homo sapiens, UniProt Q9H422) (Q9H422 whole entry): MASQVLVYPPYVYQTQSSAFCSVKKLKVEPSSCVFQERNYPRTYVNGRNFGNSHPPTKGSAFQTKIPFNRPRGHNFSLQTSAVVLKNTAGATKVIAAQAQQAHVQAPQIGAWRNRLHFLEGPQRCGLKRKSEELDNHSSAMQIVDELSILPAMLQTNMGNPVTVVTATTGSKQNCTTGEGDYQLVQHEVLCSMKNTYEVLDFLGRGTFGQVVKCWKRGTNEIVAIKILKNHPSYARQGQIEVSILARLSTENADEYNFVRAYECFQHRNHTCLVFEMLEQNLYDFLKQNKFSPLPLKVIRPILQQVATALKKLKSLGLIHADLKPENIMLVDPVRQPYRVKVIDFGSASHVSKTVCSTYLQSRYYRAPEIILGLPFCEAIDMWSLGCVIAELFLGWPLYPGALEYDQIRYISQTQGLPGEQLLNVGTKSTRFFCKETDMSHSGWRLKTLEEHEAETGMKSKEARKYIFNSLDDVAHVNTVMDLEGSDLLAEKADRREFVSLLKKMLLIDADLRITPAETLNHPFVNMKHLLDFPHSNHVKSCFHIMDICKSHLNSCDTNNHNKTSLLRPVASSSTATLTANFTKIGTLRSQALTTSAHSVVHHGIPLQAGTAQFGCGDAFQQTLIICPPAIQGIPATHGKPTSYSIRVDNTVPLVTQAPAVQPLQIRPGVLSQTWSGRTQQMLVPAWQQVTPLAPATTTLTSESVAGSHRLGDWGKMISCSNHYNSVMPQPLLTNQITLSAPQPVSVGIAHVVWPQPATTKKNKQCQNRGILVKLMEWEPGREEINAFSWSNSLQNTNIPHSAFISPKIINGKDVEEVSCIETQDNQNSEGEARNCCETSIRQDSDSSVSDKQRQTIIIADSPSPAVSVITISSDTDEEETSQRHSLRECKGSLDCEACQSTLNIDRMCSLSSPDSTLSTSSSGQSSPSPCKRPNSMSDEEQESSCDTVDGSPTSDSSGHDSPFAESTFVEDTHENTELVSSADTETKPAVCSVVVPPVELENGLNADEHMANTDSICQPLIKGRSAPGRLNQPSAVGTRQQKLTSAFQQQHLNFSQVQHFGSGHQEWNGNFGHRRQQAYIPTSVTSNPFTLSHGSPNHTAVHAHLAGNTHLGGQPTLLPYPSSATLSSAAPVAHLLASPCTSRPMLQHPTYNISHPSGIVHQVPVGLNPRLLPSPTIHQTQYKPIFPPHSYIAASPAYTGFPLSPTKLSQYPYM
Sequence of 363 human kinases (including Aurora A/B/C) (Homo sapiens, UniProt P49674) (P49674 whole entry): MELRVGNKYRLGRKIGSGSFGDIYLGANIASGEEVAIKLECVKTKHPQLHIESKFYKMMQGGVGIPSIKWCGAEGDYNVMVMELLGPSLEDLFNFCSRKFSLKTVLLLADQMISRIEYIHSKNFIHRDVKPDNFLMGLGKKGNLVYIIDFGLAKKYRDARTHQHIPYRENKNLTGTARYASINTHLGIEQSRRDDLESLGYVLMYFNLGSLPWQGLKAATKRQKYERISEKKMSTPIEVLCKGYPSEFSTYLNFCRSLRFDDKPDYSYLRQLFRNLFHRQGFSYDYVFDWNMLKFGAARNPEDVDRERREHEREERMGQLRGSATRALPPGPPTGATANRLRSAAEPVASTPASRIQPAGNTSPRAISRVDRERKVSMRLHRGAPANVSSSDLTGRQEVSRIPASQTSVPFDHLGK
Sequence of 363 human kinases (including Aurora A/B/C) (Homo sapiens, UniProt P29376) (P29376 17-864): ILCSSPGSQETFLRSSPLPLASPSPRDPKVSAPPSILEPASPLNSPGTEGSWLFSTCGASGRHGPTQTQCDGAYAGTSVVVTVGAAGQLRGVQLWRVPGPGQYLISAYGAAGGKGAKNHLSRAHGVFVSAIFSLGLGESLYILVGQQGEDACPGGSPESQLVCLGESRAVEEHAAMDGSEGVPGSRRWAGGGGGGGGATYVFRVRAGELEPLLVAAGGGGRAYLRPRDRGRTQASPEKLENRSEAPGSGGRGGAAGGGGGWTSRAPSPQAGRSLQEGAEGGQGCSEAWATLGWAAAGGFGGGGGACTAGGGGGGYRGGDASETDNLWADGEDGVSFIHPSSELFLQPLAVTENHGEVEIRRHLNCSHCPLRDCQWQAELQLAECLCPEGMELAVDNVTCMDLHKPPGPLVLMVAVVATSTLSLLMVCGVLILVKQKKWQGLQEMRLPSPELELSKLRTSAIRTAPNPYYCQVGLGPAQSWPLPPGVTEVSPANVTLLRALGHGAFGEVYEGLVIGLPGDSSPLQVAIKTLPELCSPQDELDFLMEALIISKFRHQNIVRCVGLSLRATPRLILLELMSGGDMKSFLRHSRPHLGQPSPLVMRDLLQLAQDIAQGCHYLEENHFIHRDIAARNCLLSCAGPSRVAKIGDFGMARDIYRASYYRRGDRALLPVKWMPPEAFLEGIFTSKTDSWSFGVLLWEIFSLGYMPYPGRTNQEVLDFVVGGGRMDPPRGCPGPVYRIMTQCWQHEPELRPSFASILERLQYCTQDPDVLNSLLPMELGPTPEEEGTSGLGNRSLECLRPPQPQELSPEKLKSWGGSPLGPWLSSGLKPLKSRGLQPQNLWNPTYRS
Sequence of 363 human kinases (including Aurora A/B/C) (Homo sapiens, UniProt Q96RR4) (Q96RR4 whole entry): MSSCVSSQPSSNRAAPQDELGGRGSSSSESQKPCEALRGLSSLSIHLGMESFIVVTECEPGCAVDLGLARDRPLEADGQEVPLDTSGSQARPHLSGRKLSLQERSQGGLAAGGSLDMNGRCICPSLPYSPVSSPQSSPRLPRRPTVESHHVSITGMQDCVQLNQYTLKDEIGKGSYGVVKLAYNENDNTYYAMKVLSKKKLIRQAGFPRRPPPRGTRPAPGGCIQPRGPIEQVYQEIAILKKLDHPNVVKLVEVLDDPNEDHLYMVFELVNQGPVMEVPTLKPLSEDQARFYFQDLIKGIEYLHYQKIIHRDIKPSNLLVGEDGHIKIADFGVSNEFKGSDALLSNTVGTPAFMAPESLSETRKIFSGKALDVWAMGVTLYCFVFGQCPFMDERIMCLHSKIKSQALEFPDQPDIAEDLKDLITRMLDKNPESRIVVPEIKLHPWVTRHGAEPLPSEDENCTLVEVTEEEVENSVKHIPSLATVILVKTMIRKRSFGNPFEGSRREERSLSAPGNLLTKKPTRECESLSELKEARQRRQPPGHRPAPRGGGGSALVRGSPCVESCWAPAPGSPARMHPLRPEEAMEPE
Sequence of 363 human kinases (including Aurora A/B/C) (Homo sapiens, UniProt Q9Y2H1) (Q9Y2H1 whole entry): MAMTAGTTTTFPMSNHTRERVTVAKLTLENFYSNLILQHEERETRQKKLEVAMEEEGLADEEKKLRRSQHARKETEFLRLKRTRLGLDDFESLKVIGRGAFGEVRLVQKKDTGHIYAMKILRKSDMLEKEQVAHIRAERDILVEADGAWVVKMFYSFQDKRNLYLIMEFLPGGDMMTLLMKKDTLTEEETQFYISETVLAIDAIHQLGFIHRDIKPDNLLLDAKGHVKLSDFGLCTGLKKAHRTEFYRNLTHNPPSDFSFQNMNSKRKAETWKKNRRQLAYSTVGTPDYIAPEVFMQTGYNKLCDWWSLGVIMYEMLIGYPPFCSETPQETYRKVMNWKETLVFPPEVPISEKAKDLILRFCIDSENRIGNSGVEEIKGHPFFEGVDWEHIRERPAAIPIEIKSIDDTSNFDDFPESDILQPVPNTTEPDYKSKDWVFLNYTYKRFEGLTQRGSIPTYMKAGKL
Sequence of 363 human kinases (including Aurora A/B/C) (Homo sapiens, UniProt Q13554) (Q13554 whole entry): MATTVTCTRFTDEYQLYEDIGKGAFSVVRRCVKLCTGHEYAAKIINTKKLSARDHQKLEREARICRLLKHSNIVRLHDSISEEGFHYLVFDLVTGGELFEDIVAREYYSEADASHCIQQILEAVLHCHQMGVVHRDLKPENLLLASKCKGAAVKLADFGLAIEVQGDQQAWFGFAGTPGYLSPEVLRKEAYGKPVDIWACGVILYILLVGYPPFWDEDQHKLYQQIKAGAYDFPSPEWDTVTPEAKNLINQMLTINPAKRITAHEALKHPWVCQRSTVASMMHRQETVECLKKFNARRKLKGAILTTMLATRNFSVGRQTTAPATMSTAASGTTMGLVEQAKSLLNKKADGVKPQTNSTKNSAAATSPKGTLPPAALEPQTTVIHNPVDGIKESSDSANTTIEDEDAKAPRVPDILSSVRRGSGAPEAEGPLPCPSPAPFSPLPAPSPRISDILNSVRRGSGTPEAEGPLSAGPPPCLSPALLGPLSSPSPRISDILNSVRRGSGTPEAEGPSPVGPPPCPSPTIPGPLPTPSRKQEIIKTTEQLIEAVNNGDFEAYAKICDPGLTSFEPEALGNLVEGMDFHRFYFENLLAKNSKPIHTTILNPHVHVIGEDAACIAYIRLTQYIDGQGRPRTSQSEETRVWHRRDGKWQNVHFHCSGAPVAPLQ
Sequence of 363 human kinases (including Aurora A/B/C) (Homo sapiens, UniProt P19784) (P19784 whole entry): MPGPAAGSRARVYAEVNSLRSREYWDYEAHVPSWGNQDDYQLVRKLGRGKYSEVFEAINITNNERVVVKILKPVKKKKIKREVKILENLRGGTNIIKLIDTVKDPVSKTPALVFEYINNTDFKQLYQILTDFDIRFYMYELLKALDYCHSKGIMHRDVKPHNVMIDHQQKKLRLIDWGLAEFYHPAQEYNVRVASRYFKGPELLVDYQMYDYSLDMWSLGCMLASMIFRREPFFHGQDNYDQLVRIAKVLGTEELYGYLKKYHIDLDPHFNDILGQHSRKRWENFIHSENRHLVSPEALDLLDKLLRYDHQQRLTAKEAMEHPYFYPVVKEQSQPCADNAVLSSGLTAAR

Row | SMILES | remaining activity at 0.1 µM [1] | remaining activity at 0.5 µM ([1]; 500 nM) | remaining activity at 0.1 µM [2] | remaining activity at 0.5 µM ([2]; 500 nM) | remaining activity at 0.1 µM [3] | remaining activity at 0.5 µM ([3]; 500 nM) | remaining activity at 0.1 µM [4] | remaining activity at 0.5 µM ([4]; 500 nM) | remaining activity at 0.1 µM [5] | remaining activity at 0.5 µM ([5]; 500 nM) | remaining activity at 0.1 µM [6] | remaining activity at 0.5 µM ([6]; 500 nM) | remaining activity at 0.1 µM [7] | remaining activity at 0.5 µM ([7]; 500 nM) | remaining activity at 0.1 µM [8] | remaining activity at 0.5 µM ([8]; 500 nM) | remaining activity at 0.1 µM [9] | remaining activity at 0.5 µM ([9]; 500 nM) | remaining activity at 0.1 µM [10] | remaining activity at 0.5 µM ([10]; 500 nM) | other results
1 | O=C(O)[C@]1(Cc2cccc(Nc3nccs3)n2)CC[C@@H](Oc2cccc(Cl)c2F)CC1 [MK-5108] | 87.6% | 64.2% | 87.2% | 86.5% | 97% | 70% | 98.1% | 91.5% | 93.4% | 99.8% | 99.6% | 97.8% | 118% | 113% | 99% | 106% | 95.5% | 97.8% | 111% | 87.7% | remaining activity at 0.1 µM [11]: 102%; remaining activity at 0.5 µM ([11]; 500 nM): 87.9%
2 | O=C(c1cccc(Cl)c1F)N1CCN(Cc2cccc(Nc3nccs3)n2)CC1 [MK-8745] | – | 96.4% | – | 85.8% | – | 105% | – | 94.9% | – | 102% | – | 98.4% | – | 114% | – | 101% | – | 101% | – | 204% | % Enzyme Activity (relative to DMSO controls) ([1]; 500 nM): 94.24%; % Enzyme Activity (relative to DMSO controls) ([2]; 500 nM): 85.44%; % Enzyme Activity (relative to DMSO controls) ([3]; 500 nM): 105.35%; % Enzyme Activity (relative to DMSO controls) ([4]; 500 nM): 93.98%; % Enzyme Activity (relative to DMSO controls) ([5]; 500 nM): 101.38%; % Enzyme Activity (relative to DMSO controls) ([6]; 500 nM): 96.64%; % Enzyme Activity (relative to DMSO controls) ([7]; 500 nM): 107.82%; % Enzyme Activity (relative to DMSO controls) ([8]; 500 nM): 98.09%; % Enzyme Activity (relative to DMSO controls) ([9]; 500 nM): 99.72%; % Enzyme Activity (relative to DMSO controls) ([10]; 500 nM): 199.08%; % Enzyme Activity (relative to DMSO controls) ([11]; 500 nM): 84.91%; remaining activity at 0.5 µM ([11]; 500 nM): 85.3%
3 | CCn1cc(-c2ccnc3[nH]c(-c4cccc(CN(C)C)c4)cc23)c(-c2ccc(NC(=O)N(C)C)cc2)n1 [GSK1070916] | 106% | – | 89.1% | – | 106% | – | 95.8% | – | 98.5% | – | 95.7% | – | 126% | – | 95.1% | – | 101% | – | 76.9% | – | remaining activity at 0.1 µM [11]: 85.4%
